In patent publication US8314092B2, “Substituted [(5H-pyrrolo[2,1-c][1,4]benzodiazepin-11-yl)piperazin-1-yl]-2,2-dimethylpropanoic acid compounds as dual activity H1 inverse agonists/5-HT2A antagonists” (Eli Lilly and Company, priority 2011, dated 2012):
Where a name gives a salt, the structure may show the parent alone.

Assays:
[1] = biological target: T1, recombinant 5-HT2A receptor (human) (Homo sapiens, UniProt P28223); assay: 5-HT2A competition binding assay ([3H]-Ketanserin SPA)
T1 construct: expressed in transfected cells
T1 sequence (P28223 whole entry): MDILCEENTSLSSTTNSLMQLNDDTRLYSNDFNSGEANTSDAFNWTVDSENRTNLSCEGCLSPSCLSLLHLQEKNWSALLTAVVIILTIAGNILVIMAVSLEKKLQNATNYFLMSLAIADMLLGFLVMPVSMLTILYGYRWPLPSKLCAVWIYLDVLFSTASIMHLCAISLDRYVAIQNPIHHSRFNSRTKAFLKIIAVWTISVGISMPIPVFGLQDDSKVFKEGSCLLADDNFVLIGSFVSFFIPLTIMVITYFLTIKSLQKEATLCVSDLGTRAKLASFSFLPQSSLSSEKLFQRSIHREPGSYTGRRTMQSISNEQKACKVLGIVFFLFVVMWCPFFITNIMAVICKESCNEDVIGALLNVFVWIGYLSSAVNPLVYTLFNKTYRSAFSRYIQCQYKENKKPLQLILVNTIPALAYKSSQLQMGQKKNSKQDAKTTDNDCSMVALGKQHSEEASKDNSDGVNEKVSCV
Method: [^3H]-Ketanserin binding experiments are carried out in SPA 96-well format. Membranes used in this assay are prepared from AV-12 cells stably expressing recombinant 5-HT2A receptor (human). The incubation is initiated by the addition of a mixture of WGA YSi SPA beads (1 mg/well, Perkin Elmer (MA, USA), RPNQ0011) and 2 μg membranes to assay buffer (67 mM Tris, 0.5 mM EDTA; pH 7.6) containing 3.1 nM [^3H]-Ketanserin and varying concentrations of the test compound (10 point concentration response curves). Non-specific binding is determined in the presence of 20 μM 1-(1-Naphthyl)piperazine. Samples were incubated for four hours at room temperature (22° C.) and then read in a Microbeta Trilux.
Curves are evaluated using a 4-parameter logistic nonlinear equation to obtain the concentration of competitor causing 50% inhibition of radioligand binding (IC50). Equilibrium dissociation constants (Ki) are calculated according to the equation Ki=IC50/(1+L/Kd), where L equals the concentration of radioligand used in the experiment and Kd equals the equilibrium dissociation constant of the radioligand for the receptor, determined from standard saturation analysis or homologous competition experiments. Reported values for Ki, where n values are indicated, are shown as geometric mean±the standard error of the mean (SEM), with the number of replicate determinations indicated by n. […]

5-HT1F = 5-HT1F (Homo sapiens, UniProt P30939); assay: 5-HT1F binding
Chain of 5-HT1F (P30939 whole entry, species assumed): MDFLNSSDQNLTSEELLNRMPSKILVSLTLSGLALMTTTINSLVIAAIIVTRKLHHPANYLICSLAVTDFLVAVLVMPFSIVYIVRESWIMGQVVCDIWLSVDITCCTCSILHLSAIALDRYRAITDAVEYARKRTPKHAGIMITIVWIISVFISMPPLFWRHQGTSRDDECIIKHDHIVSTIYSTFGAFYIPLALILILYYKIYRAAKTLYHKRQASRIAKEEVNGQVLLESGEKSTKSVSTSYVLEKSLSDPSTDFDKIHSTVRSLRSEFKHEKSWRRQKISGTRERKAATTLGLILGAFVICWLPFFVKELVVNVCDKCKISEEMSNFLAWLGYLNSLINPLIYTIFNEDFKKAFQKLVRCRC
Source text: (§1) Further, the compounds of the invention may be tested in binding assays and functional activity assays by well known methods for other physiologically important receptors such as, but not limited to, the hERG channel, other serotonin receptors (specifically 5-HT1A, 5-HT1B, 5-HT1D, 5-HT1E, 5-HT1F receptors, lack of agonist activity at 5-HT2B receptors, 5-HT2C, 5-HT4, 5-HTS, 5-HT6, and 5-HT7 receptors), muscarinic receptors, dopaminergic receptors (specifically D1, D2, and D3), GABAA receptors, adrenergic receptors and monoamine transporters. Certain exemplified compounds are tested at these receptors and are shown to lack significant activity.

5-HT6 = 5-HT6 (Homo sapiens, UniProt P50406); assay: 5-HT6 binding
Chain of 5-HT6 (P50406 whole entry, species assumed): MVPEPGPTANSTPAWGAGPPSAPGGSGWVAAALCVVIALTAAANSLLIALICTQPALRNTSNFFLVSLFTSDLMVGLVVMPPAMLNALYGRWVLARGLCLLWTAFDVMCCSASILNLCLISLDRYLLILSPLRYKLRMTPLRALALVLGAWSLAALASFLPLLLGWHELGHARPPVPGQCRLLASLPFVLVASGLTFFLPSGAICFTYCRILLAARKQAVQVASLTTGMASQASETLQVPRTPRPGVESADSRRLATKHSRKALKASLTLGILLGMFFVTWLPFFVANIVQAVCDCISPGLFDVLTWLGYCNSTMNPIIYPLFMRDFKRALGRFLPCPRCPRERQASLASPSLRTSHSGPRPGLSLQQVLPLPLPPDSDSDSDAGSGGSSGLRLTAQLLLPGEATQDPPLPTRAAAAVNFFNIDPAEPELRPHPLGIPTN
Source text: as §1

Adrenergic alpha2B = Adrenergic alpha2B (Homo sapiens, UniProt P18089); assay: Adrenergic alpha2B binding
Chain of Adrenergic alpha2B (P18089 whole entry): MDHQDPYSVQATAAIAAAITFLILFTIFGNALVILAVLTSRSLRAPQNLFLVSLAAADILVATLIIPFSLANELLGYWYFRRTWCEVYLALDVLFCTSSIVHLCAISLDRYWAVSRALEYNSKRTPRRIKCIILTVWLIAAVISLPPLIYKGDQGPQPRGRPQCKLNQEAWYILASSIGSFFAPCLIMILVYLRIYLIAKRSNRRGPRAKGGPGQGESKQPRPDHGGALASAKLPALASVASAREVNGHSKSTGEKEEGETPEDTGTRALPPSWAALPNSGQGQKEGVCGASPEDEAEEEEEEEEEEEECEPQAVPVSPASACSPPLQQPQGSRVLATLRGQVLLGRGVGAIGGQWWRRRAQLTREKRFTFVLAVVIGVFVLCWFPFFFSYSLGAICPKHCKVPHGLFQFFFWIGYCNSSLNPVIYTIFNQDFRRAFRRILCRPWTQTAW
Source text: as §1

Serotonin Transporter = Serotonin Transporter (Homo sapiens, UniProt P31645); assay: Serotonin transporter assay; assay type: binding; settings: dihydrochloride
Chain of Serotonin Transporter (P31645 whole entry): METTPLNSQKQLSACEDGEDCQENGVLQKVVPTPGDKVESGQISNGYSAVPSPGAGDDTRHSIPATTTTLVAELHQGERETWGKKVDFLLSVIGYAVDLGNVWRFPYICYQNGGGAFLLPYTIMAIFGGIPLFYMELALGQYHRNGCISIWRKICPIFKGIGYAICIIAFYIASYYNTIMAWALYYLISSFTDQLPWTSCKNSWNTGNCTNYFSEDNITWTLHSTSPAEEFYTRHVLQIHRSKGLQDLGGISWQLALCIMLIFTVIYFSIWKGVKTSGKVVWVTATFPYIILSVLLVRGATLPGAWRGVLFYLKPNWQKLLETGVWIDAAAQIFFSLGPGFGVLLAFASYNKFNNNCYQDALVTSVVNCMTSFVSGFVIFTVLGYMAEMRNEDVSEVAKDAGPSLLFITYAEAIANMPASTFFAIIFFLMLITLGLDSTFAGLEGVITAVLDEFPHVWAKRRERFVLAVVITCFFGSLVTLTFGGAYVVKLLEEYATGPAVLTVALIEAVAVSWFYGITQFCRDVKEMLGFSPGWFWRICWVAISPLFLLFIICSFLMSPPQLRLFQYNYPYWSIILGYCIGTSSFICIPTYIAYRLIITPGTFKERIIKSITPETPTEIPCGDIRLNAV
Source text: as §1

Dopamine Transporter = Dopamine Transporter (Homo sapiens, UniProt Q01959); assay: Dopamine transporter assay; assay type: binding; settings: dihydrochloride
Chain of Dopamine Transporter (Q01959 whole entry): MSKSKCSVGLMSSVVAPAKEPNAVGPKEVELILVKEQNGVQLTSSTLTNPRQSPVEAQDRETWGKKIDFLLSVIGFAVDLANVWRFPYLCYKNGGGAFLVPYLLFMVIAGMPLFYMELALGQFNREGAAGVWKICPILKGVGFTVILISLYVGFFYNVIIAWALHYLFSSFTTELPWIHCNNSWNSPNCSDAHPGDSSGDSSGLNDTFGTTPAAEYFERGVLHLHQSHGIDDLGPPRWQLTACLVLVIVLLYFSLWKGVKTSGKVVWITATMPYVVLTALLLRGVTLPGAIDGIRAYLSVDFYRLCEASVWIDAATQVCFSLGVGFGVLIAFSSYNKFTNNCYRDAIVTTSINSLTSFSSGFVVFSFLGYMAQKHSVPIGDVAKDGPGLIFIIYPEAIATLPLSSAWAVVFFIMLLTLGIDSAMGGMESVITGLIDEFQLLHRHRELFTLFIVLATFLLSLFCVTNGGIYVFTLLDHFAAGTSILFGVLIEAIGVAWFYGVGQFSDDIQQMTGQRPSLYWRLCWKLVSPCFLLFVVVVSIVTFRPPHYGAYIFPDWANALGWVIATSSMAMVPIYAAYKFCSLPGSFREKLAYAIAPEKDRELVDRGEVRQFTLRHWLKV
Source text: as §1

5-HT2A receptor = biological target: T2, 5-HT2A receptor (Mus musculus, UniProt P35363); assay: Inhibition of DOI induced headshake activity; assay type: in vivo; settings: mice, 10 mg/kg PO, 60 minutes pre-treatment, DOI 3 mg/kg
T2 construct: male C57BL/6J mice (20-25 g, Charles River); from tissue; host or cells: living C57BL/6J mouse (whole animal, behavioural read-out)
T2 sequence (P35363 whole entry): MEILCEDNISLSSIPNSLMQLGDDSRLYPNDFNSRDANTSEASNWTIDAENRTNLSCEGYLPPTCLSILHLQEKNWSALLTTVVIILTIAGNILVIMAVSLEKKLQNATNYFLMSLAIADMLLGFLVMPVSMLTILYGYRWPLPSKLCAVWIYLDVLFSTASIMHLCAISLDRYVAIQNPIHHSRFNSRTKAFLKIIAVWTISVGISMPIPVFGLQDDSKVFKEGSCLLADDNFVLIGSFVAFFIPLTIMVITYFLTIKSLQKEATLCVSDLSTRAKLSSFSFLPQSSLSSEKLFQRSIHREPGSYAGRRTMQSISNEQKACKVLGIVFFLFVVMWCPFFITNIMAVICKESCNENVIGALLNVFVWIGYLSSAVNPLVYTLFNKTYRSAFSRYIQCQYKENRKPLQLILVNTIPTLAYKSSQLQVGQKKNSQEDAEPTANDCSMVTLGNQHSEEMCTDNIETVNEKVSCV
Method: (see for example Bartoszyk G D, van Amsterdam C, Böttcher H, Seyfried C A. EMD 281014, a new selective serotonin 5-HT2A receptor antagonist. Eur J Pharmacol. 2003 473: 229-230.) Briefly, male C57BL/6J mice (20-25 g, Charles River) are housed in standard housing conditions (32 mice in a large IVC cage, 07.00 to 19.00 light phase, constant temperature (19-23° C.) and humidity (50%+/−10), ad lib food and water). Mice received either vehicle (0.25% Methyl cellulose), DOI (3 mg/kg in saline) or test compound at 10 mg/kg PO plus DOI (3 mg/kg in saline). Test compounds are individually evaluated in groups of four per experiment with n=4 for each compound, together with vehicle and DOI+vehicle (n=8). After a test compound pre-treatment time of 60 minutes the mice receive either vehicle (saline) or 3 mg/kg DOI dosed subcutaneously, and are then placed into clear perspex observation chambers. […] The data is analyzed using an ANOVA and post-hoc Dunnet's Test. Exemplified compounds are tested essentially as described and are found to inhibit the DOI induced headshake response at greater than 90% at 10 mg/kg. The compound of example 13 is tested essentially as described and is found to inhibit the DOI induced headshake response at 100% at 10 mg/kg.

[2] = biological target: human recombinant H1 receptor (Homo sapiens, UniProt P35367); assay: H1 inverse agonism (IP1 accumulation in HEK293/hm H1 cells); assay type: cell-based; set-up: expressed in transfected cells; host or cells: HEK293 (HEK293/hm H1 clone R-40)
Chain of human recombinant H1 receptor (P35367 whole entry): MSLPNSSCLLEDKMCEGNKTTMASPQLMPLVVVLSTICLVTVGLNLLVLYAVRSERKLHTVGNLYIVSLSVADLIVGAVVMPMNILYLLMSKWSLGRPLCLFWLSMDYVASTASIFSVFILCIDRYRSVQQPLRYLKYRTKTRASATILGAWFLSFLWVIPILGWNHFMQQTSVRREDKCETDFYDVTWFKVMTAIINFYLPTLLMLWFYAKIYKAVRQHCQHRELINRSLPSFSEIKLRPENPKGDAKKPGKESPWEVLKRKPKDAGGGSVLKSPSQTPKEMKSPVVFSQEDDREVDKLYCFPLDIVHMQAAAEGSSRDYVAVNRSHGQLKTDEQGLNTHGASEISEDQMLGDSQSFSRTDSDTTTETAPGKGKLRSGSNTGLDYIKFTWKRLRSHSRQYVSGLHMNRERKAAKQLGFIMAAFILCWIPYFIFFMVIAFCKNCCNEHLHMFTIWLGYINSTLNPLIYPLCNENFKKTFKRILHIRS

Q: Which Ki [1] does the source give for `Cc1cc2n(c1)Cc1cc(Cl)ccc1N=C2N1CCN(CC(C)(C)C(=O)O)CC1` [Example 13, 3-[4-(7-Chloro-2-methyl-5H-pyrrolo[2,1-c][1,4]benzodiazepin-11-yl)piperazin-1-yl]-2,2-dimethylpropanoic acid dihydrochloride] here?
A: Its Ki is 63.2 nM.

Q: What about the Ki (5-HT1F) of the same compound?
A: Its Ki is > 8250 nM.

Q: And the Ki (5-HT6)?
A: Its Ki is > 5830 nM.

Q: What about the Ki (Adrenergic alpha2B) of the same compound?
A: Its Ki is > 4800 nM.

Q: And the “Serotonin Transporter” value (Serotonin Transporter)?
A: Its value is >515.

Q: And the “Dopamine Transporter” value (Dopamine Transporter)?
A: The value was >880.

Q: And the “inhibition of DOI induced headshake response” value (5-HT2A receptor)?
A: The value was 100%.

Q: What about the IC50 ([2]; IP1 accumulation, HEK293/hm H1 cells) of the same compound?
A: The IC50 was 53.9 ± 37 nM.

Q: And the “suppression of constitutive activity (negative efficacy)” value ([2]; relative to positive control Tripelennamine 10 μM)?
A: Its value is 126±6%.
